Source: patent US12054478B2, “Compositions and methods for inhibiting phenyl triazole MLL1-WDR5 protein-protein interaction” (China Pharmaceutical University, priority 2018, dated 2024)

Experiments:
[1] = molecular target: MLL1-WDR5 protein-protein interactions (Homo sapiens, UniProt P61964); assay: Inhibition of MLL1-WDR5 protein-protein interaction; format: binding; conditions: Table 1; read-out: MLL1-WDR5 PPI inhibition activity
[2] = tested on: MV4-11 human acute leukemia monocyte; assay: Anti-proliferation on leukemia cells, MV4-11; format: cell-based; conditions: MV-411 cells
Protocol: (§1) Anti-proliferation experiments were conducted with leukemia cells with some of the compounds in the present disclosure.

[3] = tested on: H3K4 acetylation level (MLL1 catalytic activity in cells); assay: Western-blot at cellular level, H3K4 acetylation (H3K4me1/2/3) levels; format: cell-based; conditions: Yes/No
Protocol: In addition, Western-blot experiments at cellular level were conducted with some of the compounds in the present disclosure, with results listed in Table 1 on whether some of the compounds in the present disclosure inhibited H3K4 acetylation levels.
The inhibition on MLL1 catalytic activities at the cellular level for some of the compounds was plotted in FIG. 2.

[4] = tested on: Molm-13 human acute myeloid leukemia cells; assay: Anti-proliferation on leukemia cells, Molm-13; format: cell-based; conditions: Molm-13 cells
Protocol: as §1

[5] = tested on: Hox and Meis-1 gene expression; assay: RT-PCR at cellular level, Hox and Meis-1 gene expression; format: cell-based; conditions: Yes/No
[6] = tested on: K562 human chronic myeloid leukemia cells; assay: Anti-proliferation on leukemia cells, K562; format: cell-based
Protocol: Anti-proliferation experiments were conducted with leukemia cells with some of the compounds in the present disclosure. Table 3 listed the results of evaluation of the anti-proliferation activities for some of the compounds from this present disclosure conducted with acute leukemia cells, wherein MV4-11 is human acute leukemia monocyte, Molm-13 is human acute myeloid leukemia cells, and K562 is human chronic myeloid leukemia cells.

female balb/c mice = conditions: 80 mg/kg intraperitoneal, 10 consecutive days
Protocol: In the meantime, subacute toxicity experiments were conducted to evaluate the safety of some of the compounds in the present disclosure in mouse.

In the case of “5-amino-2-chloro-N-(5-(4-(4-(dimethylaminomethyl)benzyl)-1H-1,2,3-triazol-1-group)-2-(4-methylpiperazin-1-group group)phenyl)-4-fluoro-3-Methyl benzoyl [Example 18]”, the IC50 [1] is reported as less than 0.05 µM, the GI50 [2] is reported as 11.2 ± 1.3 µM and the “Inhibition on H3K4 acetylation level” value [3] is reported as “Yes”. For the same molecule, the GI50 [4] was 15.4 ± 2.2 µM and the “Downregulation of Hox and Meis-1 expression” value (shortened to “Downregulation”) [5] was “Yes”.

`Cc1c(F)c(N)cc(C(=O)Nc2cc(-c3ccc(N)cc3)ccc2N2CCN(C)CC2)c1Cl` [DDO-2084, reference compound] was tested, and the IC50 [1] was 0.0887 ± 0.0049 µM, the GI50 ([2]; Homo sapiens, MV4-11) was 17.7 ± 2.3 µM and the “Inhibition on H3K4 acetylation level” value [3] was “Yes”. For the same molecule, the GI50 [6] was 50.5 ± 5.5 µM and the “Downregulation” value [5] was “Yes”.

In the case of `COC(=O)c1cn(-c2ccc(N3CCN(C)CC3)c(NC(=O)c3cc(N)c(F)c(C)c3Cl)c2)nn1` [Example 1, 1-(3-(5-amino-2-chloro-4-fluoro-3-methylbenzoylamino)-4-(4-methylpiperazine-1-group)phenyl)-1H-1,2,3-methyl triazole-4-carboxylate], the “Inhibition on H3K4 acetylation level” value [3] is reported as “Yes” and the “Downregulation” value [5] is reported as “Yes”.

For `Cc1c(F)c(N)cc(C(=O)Nc2cc(-n3cc(C(=O)N4CCOCC4)nn3)ccc2N2CCN(C)CC2)c1Cl` [Example 4], the “Inhibition on H3K4 acetylation level” value [3] was “Yes”, the GI50 [6] was 34.4 ± 0.9 µM and the “Average body weight changes” value (female balb/c mice) was “slight body weight increase”. The “Downregulation” value [5] was “Yes”.

With `Cc1c(F)c(N)cc(C(=O)Nc2cc(-n3cc(C(=O)NCCCN4CCOCC4)nn3)ccc2N2CCN(C)CC2)c1Cl` [Example 7] the GI50 [6] was 12.9 ± 0.4 µM and the “Average body weight changes” value (female balb/c mice) was “slight body weight increase”.

`Cc1c(F)c(N)cc(C(=O)Nc2cc(-n3cc(NC(=O)CCCN)nn3)ccc2N2CCN(C)CC2)c1Cl` [Example 16, 5-amino-N-(5-(4-(4-Aminobutyrylamino)-1H-1,2,3-triazol-1-group)-2-(4-methylpiperazin-1-group)phenyl)-2-chloro-4-fluoro-3-methyl benzoylamino] showed an IC50 [1] of less than 0.01 µM, a GI50 ([2]; Homo sapiens, MV4-11) of 15.1 ± 0.9 µM and a GI50 [6] of 15 ± 0.8 µM. For the same molecule, the “Average body weight changes” value (female balb/c mice) was “slight body weight increase”.

Molecule `Cc1c(F)c(N)cc(C(=O)Nc2c(N3CCN(C)CC3)ccc(-n3cc(C(=O)NCCN4CCOCC4)nn3)c2C)c1Cl` [Example 22, 1-(3-(5-amino-2-chloro-4-fluoro-3-Methylbenzoylamino)-2-methyl-4-(4-methylpiperazin-1-group)phenyl)-N-(2-Morpholineethyl)-1H-1,2,3-triazol-4-formamide] has an IC50 [1] of less than 0.01 µM, a GI50 ([2]; Homo sapiens, MV4-11) of 9.5 ± 0.4 µM and a GI50 [6] of 10.9 ± 0.7 µM. For the same molecule, the “Average body weight changes” value (female balb/c mice) was “slight body weight increase” and the GI50 ([4]; Homo sapiens) was 11.2 ± 0.8 µM.
